In ChEMBL document CHEMBL1201862, “PubChem BioAssay data set” (2004):
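Grown in 96-well plates, cells were treated for 48 hours with each compound at five concentrations. Insufficient inhibition: endpoint recorded as highest concentration tested. GI50: concentration for 50% inhibition of growth.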 Calls of active or inactive are those of the source. Cut-off read from the data, not from the text of the source: active = GI50 up to about 1.1 µM and inactive = higher.

Key:
Assay in all cases: NCI tumour cell line growth inhibition, 48 h
OVCAR-3 = test system: OVCAR-3
CAKI-1 = test system: CAKI-1
BT-549 = test system: BT-549
COLO 205 = test system: COLO 205
LOX IMVI = test system: LOX IMVI
K562 = test system: K562
HCT-15 = test system: HCT-15
T47D = test system: T47D
U-251 = test system: U-251
MCF7 = test system: MCF7
SW-620 = test system: SW-620
RPMI-8226 = test system: RPMI-8226
SF-268 = test system: SF-268
PC-3 = test system: PC-3
SK-MEL-28 = test system: SK-MEL-28
SK-MEL-2 = test system: SK-MEL-2
Hs-578T = test system: Hs-578T
NCI-H226 = test system: NCI-H226
HCC 2998 = test system: HCC 2998
OVCAR-8 = test system: OVCAR-8

Row | Structure (SMILES) | GI50 (OVCAR-3) | GI50 (CAKI-1) | GI50 (BT-549) | GI50 (COLO 205) | GI50 (LOX IMVI) | GI50 (K562) | GI50 (HCT-15) [µM] | GI50 (T47D) | GI50 (U-251) | GI50 (MCF7) | GI50 (SW-620) | GI50 (RPMI-8226) | GI50 (SF-268) | GI50 (PC-3) | GI50 (SK-MEL-28) | GI50 (SK-MEL-2) | GI50 (Hs-578T) | GI50 (NCI-H226) | GI50 (HCC 2998) | GI50 (OVCAR-8)
1 | CCOC(=O)C(NC(=O)CC)(Nc1ccc(S(=O)(=O)Nc2onc(C)c2C)cc1)C(F)(F)F (stereo not given) | > 100 µM (inactive) | > 100 µM (inactive) | > 100 µM (inactive) | > 100 µM (inactive) | > 100 µM (inactive) | > 100 µM (inactive) | > 100 | > 100 µM (inactive) | > 100 µM (inactive) | > 100 µM (inactive) | > 100 µM (inactive) | > 100 µM (inactive) | > 100 µM (inactive) | > 100 µM (inactive) | > 100 µM (inactive) | > 100 µM (inactive) | > 100 µM (inactive) | > 100 µM (inactive) | > 100 µM (inactive) | > 100 µM (inactive)
2 | C=C1CC(COc2ccc3c(C)c(Cl)c(=O)oc3c2)(c2ccccc2)OC1=O (stereo not given) | 2.14 µM (inactive) | 1.37 µM (inactive) | 1.53 µM (inactive) | 0.675 µM (active) | 0.887 µM (active) | 0.422 µM (active) | 2.26 | 2.04 µM (inactive) | 8.15 µM (inactive) | 1.08 µM (active) | 0.69 µM (active) | 0.442 µM (active) | 4.46 µM (inactive) | 1.9 µM (inactive) | 2.11 µM (inactive) | 1.75 µM (inactive) | 5.58 µM (inactive) | 2.34 µM (inactive) | 1.71 µM (inactive) | 2.06 µM (inactive)
3 | CN(C)c1ccc(C=c2c3ccccc3n3c2c2c([n+]3C)CCCC2)cc1 | 0.152 µM (active) | 0.908 µM (active) | 0.186 µM (active) | 0.0301 µM (active) | 0.143 µM (active) | 0.023 µM (active) | 1.87 | 0.0191 µM (active) | 0.0223 µM (active) | 0.0491 µM (active) | 0.118 µM (active) | 0.0352 µM (active) | 0.183 µM (active) | 0.219 µM (active) | 0.542 µM (active) | 0.173 µM (active) | 0.351 µM (active) | 0.447 µM (active) | 0.0792 µM (active) | 0.128 µM (active)
4 | CCOc1cnc(C(O)(c2ccccc2)c2ccccc2)o1 | > 100 µM (inactive) | > 100 µM (inactive) | > 100 µM (inactive) | > 100 µM (inactive) | 69.7 µM (inactive) | > 100 µM (inactive) | 77.1 | > 100 µM (inactive) | > 100 µM (inactive) | > 100 µM (inactive) | > 100 µM (inactive) | > 100 µM (inactive) | > 100 µM (inactive) | > 100 µM (inactive) | > 100 µM (inactive) | > 100 µM (inactive) | > 100 µM (inactive) | > 100 µM (inactive) | > 100 µM (inactive) | > 100 µM (inactive)
5 | Nc1nc(Cl)cc(NCC2(CO)CC(O)C2)n1 (stereo not given) | > 100 µM (inactive) | > 100 µM (inactive) | > 100 µM (inactive) | > 100 µM (inactive) | > 100 µM (inactive) | > 100 µM (inactive) | > 100 | > 100 µM (inactive) | > 100 µM (inactive) | > 100 µM (inactive) | > 100 µM (inactive) | > 100 µM (inactive) | > 100 µM (inactive) | > 100 µM (inactive) | > 100 µM (inactive) | > 100 µM (inactive) | > 100 µM (inactive) | > 100 µM (inactive) | > 100 µM (inactive) | > 100 µM (inactive)
6 | COc1ccc2nc(C)cc(NCCCCCCCCCNc3cc(C)nc4ccc(OC)cc34)c2c1 | 1.24 µM (inactive) | 6.67 µM (inactive) | 8.95 µM (inactive) | 2.28 µM (inactive) | 0.714 µM (active) | 0.264 µM (active) | 2.3 | 1.73 µM (inactive) | 2.07 µM (inactive) | 1.21 µM (inactive) | 0.957 µM (active) | 1.11 µM (active) | 1.93 µM (inactive) | 1.02 µM (active) | 15 µM (inactive) | 3.79 µM (inactive) | 1.64 µM (inactive) | 6.18 µM (inactive) | 1.4 µM (inactive) | 0.527 µM (active)
7 | CC(C)=CCC[C@@H](C)C1=C(O)C(=O)C(C)=C(Nc2ccccc2Cl)C1=O | 10.8 µM (inactive) | 16 µM (inactive) | 32.4 µM (inactive) | 14.2 µM (inactive) | 8.57 µM (inactive) | 36 µM (inactive) | 7.26 | 12.6 µM (inactive) | 16.3 µM (inactive) | 24.4 µM (inactive) | 27 µM (inactive) | 25.9 µM (inactive) | 16 µM (inactive) | 18.5 µM (inactive) | 26.5 µM (inactive) | 15.5 µM (inactive) | 21.7 µM (inactive) | 13.1 µM (inactive) | 20.6 µM (inactive) | 4.71 µM (inactive)
8 | Nc1nc(S)nc2snnc12 | > 100 µM (inactive) | > 100 µM (inactive) | > 100 µM (inactive) | > 100 µM (inactive) | > 100 µM (inactive) | > 100 µM (inactive) | > 100 | > 100 µM (inactive) | > 10 µM (inactive) | > 100 µM (inactive) | > 100 µM (inactive) | > 100 µM (inactive) | > 100 µM (inactive) | > 100 µM (inactive) | > 100 µM (inactive) | > 100 µM (inactive) | > 100 µM (inactive) | > 100 µM (inactive) | > 100 µM (inactive) | > 100 µM (inactive)
9 | CC(C)CCC/C(CBr)=C(\Cl)CCl | 2.53 µM (inactive) | 5.06 µM (inactive) | 1.82 µM (inactive) | 1.83 µM (inactive) | 0.0728 µM (active) | 0.104 µM (active) | 2.8 | 1.17 µM (inactive) | 4.04 µM (inactive) | 4.08 µM (inactive) | 1.5 µM (inactive) | 0.948 µM (active) | 3.55 µM (inactive) | 4.76 µM (inactive) | 2.07 µM (inactive) | 1.46 µM (inactive) | 2.45 µM (inactive) | 7.89 µM (inactive) | 8.59 µM (inactive) | 1.56 µM (inactive)
10 | Cn1c(N)c(/C=C/C(=O)Oc2ccccc2)c(=O)n(C)c1=O | > 100 µM (inactive) | 29 µM (inactive) | > 100 µM (inactive) | > 100 µM (inactive) | > 100 µM (inactive) | > 100 µM (inactive) | > 100 | 85.3 µM (inactive) | 52.8 µM (inactive) | 47.9 µM (inactive) | > 100 µM (inactive) | > 100 µM (inactive) | 31.7 µM (inactive) | > 100 µM (inactive) | > 100 µM (inactive) | > 100 µM (inactive) | 36 µM (inactive) | 47.4 µM (inactive) | > 100 µM (inactive) | 30.6 µM (inactive)
11 | COC(=O)c1cc2/c(=N/O)c3ccccc3sc2o1 | > 100 µM (inactive) | > 100 µM (inactive) | > 100 µM (inactive) | > 100 µM (inactive) | > 100 µM (inactive) | > 100 µM (inactive) | > 100 | > 100 µM (inactive) | > 100 µM (inactive) | > 100 µM (inactive) | > 100 µM (inactive) | > 100 µM (inactive) | > 100 µM (inactive) | > 100 µM (inactive) | > 100 µM (inactive) | > 100 µM (inactive) | 55.5 µM (inactive) | > 100 µM (inactive) | > 100 µM (inactive) | > 100 µM (inactive)
12 | CCOC(=O)c1ccc(-n2cnc(-c3ccc([N+](=O)[O-])cc3)c2)cc1 | 79.8 µM (inactive) | > 100 µM (inactive) | 36.5 µM (inactive) | > 100 µM (inactive) | > 100 µM (inactive) | > 100 µM (inactive) | > 100 | 95.7 µM (inactive) | 25.2 µM (inactive) | 72.9 µM (inactive) | 75.7 µM (inactive) | > 100 µM (inactive) | 56.2 µM (inactive) | > 100 µM (inactive) | > 100 µM (inactive) | > 100 µM (inactive) | > 100 µM (inactive) | > 100 µM (inactive) | > 100 µM (inactive) | > 100 µM (inactive)
13 | O=C(O)c1c(CC(Cc2ccccc2)C(=O)O)ccc2c1CCC2 (stereo not given) | > 100 µM (inactive) | > 100 µM (inactive) | > 100 µM (inactive) | > 100 µM (inactive) | > 100 µM (inactive) | > 100 µM (inactive) | > 100 | 66.5 µM (inactive) | > 100 µM (inactive) | > 100 µM (inactive) | > 100 µM (inactive) | > 100 µM (inactive) | > 100 µM (inactive) | > 100 µM (inactive) | > 100 µM (inactive) | > 100 µM (inactive) | > 100 µM (inactive) | > 100 µM (inactive) | > 100 µM (inactive) | > 100 µM (inactive)
14 | COc1ccc(C(C)NNC(=O)c2cc[n+]([BH2-]C#N)cc2)c(OC)c1 (stereo not given) | > 100 µM (inactive) | > 100 µM (inactive) | > 100 µM (inactive) | > 100 µM (inactive) | > 100 µM (inactive) | > 100 µM (inactive) | > 100 | > 100 µM (inactive) | > 100 µM (inactive) | > 100 µM (inactive) | > 100 µM (inactive) | > 100 µM (inactive) | > 100 µM (inactive) | > 100 µM (inactive) | > 100 µM (inactive) | > 100 µM (inactive) | > 100 µM (inactive) | > 100 µM (inactive) | > 100 µM (inactive) | > 100 µM (inactive)
